In US12655185B2, “Peptide inhibitors of interleukin-23 and their use to treat inflammatory diseases” (Protagonist Therapeutics, Inc., priority 2016, dated 2026):
pIC50: −log10 of the molar value. Bridge positions count the residues as written; N and C are the ends. Peptide text beside a SMILES is read from it.

Assays:
[1] = biological target: T1, IL-23 binding to IL23R_huFC (human IL-23R) (Homo sapiens, UniProt P29460+Q9NPF7); test: IL23-IL23R Competitive Binding ELISA; conditions: inhibition of IL-23/IL-23R binding; IL-23 0.9 nM; class symbols; read-out: IC50 IL23R_huFC
T1 sequence (Q9NPF7 20-189): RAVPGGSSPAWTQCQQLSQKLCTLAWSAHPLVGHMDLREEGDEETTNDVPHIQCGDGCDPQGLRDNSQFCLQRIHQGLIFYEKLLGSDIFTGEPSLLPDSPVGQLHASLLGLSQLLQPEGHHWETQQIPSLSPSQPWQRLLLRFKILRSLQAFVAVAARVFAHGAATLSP
T1 sequence (P29460 23-328): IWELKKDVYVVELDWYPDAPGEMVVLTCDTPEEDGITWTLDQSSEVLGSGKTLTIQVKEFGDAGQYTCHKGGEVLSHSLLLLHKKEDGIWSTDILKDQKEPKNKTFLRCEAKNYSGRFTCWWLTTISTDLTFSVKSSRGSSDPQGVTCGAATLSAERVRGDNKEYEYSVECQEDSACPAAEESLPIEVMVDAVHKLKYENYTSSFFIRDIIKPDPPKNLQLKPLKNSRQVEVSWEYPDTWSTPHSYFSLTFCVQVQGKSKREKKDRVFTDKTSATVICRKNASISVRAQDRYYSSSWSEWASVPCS
Protocol: Immulon® 4HBX plate was coated with 200 ng/well of IL23R_huFC and incubated overnight at 4° C. […] Serial dilutions of test peptides and IL-23 at a final concentration of 0.9 nM diluted in PBS were added to each well and incubated for 2 hours at room temperature. After the wells were washed, bound IL-23 was detected by incubation with 50 ng/well of goat anti-p40 polyclonal antibodies (R&D Systems #AF309) diluted in PBS for 1 hour at room temperature. The wells were again washed four times with PBST. […] The plate was finally washed as above. Signals were visualized with TMB One Component HRP Membrane Substrate, quenched with 2 M sulfuric acid and read spectrophotometrically at 450 nm.

[2] = tested on: human IL-23-dependent release of IL-17 from mouse splenocytes; test: Mouse splenocyte assay; type: cell-based; conditions: IL-17A release; IL-23 20 ng/mL; 67 hours
Protocol: Frozen mouse splenocytes (Hooke Lab), suspended in RPMI Medium 1640 (Life technologies #22400-089) supplemented with 10% heat inactivated FBS (Life technologies #16140-071), 1×MEM Non-Essential Amino Acid Solution (Life technologies #11140-050), 1 mM sodium pyruvate (Life technologies #11360-070), 100 units of Penicillin-Streptomycin (Life technologies #15140-122, 0.05 mM 2-mercaptoethanol (Life technologies #21985-023) and recombinant human IL-2 (R&D Systems #202-IL-010/CF), were seeded at 4×10E5 cells/well in a 96 well tissue culture plate. Serial dilutions of test peptides and IL-23 at a final concentration of 20 ng/mL were preincubated in a separate assay plate for 60 minutes at 37° C. in a 5% CO2 humidified incubator. Preincubated samples were then added to the culture plate containing splenocytes and incubated for an additional 67 hours at 37° C. in a 5% CO2 humidified incubator. A sandwich ELISA kit for mouse IL17A (Biolegend #436204) was used to measure the amount of IL-17A in each sample supernatants, according to manufacturer's instructions.

[3] = biological target: T2, IL-23 binding to human IL-12Rβ1_huFC (Homo sapiens, UniProt P29460+Q9NPF7); test: Human IL23/IL12Rβ1 huFc ELISA; conditions: result in words
T2 sequence (Q9NPF7 20-189): T1 sequence (Q9NPF7 20-189)
T2 sequence (P29460 23-328): T1 sequence (P29460 23-328)
Protocol: The ability of Peptide 10 to block binding of IL-23 to IL-12Rβ1 or binding of IL-12 to IL-12Rβ1 was also determined. Human IL-12Rβ1 ELISA assays were performed as follows: an assay plate was coated with 100 ng/well of human IL-12Rβ1_huFC and incubated overnight at 4° C. The wells were washed, blocked, and washed again. Serial dilutions of test peptides and either IL-23 or IL-12 at a fixed concentration corresponding to EC50 values were added to each well, and incubated for 2 hours at room temperature. After the wells were washed, bound IL-23 were detected with goat anti-p40 polyclonal antibodies followed by an HRP conjugated donkey anti-goat IgG, and bound IL-12 were detected with a biotin conjugated anti-p40 monoclonal antibody followed by HRP conjugated streptavidin. Signals were visualized with TMB One Component HRP Membrane Substrate and quenched with 2 M sulfuric acid.

Molecule	pIC50 [1]	blocking of binding of IL-23 to IL-12Rβ1 [3]	Mouse splenocyte assay [2] [µg/mL]
CC[C@H](C)[C@@H]1NC(=O)[C@H](CCCCN)NC(=O)[C@H](C)NC(=O)[C@H](Cc2c[nH]c3ccccc23)NC(=O)[C@H](CCCNC(=N)N)NC(=O)[C@H](CCC(N)=O)NC(=O)[C@H](CCC(=O)O)NC(=O)[C@H](CCC(N)=O)NC(=O)[C@H](C)NC(=O)[C@H](CC(C)C)NC(=O)[C@H](CC(N)=O)NC(=O)[C@@H]2CCCN2C(=O)[C@H](CC(=O)O)NC(=O)[C@H](C(C)C)NC(=O)CNC(=O)[C@H](C)NC(=O)[C@H](CCC(=O)O)NC(=O)[C@H](CO)NC(=O)[C@H](CCSC)NC(=O)[C@H](CCCNC(=N)N)NC(=O)[C@H](CCCNC(=N)N)NC(=O)[C@H](CC(C)C)NC(=O)[C@@H](NC(=O)[C@H](CCC(N)=O)NC(=O)[C@H](CCSC)NC(=O)[C@H](CC(N)=O)NC(=O)[C@H](Cc2ccccc2)NC(C)=O)CSSC[C@@H](C(N)=O)NC(=O)[C@H](CC(=O)O)NC(=O)[C@H](CC(=O)O)NC(=O)[C@H](CCSC)NC(=O)[C@H]([C@@H](C)CC)NC(=O)[C@H](CO)NC(=O)[C@H](CCCCN)NC1=O [Peptide 17] (Ac-FNMQCLRRMSEAGVDPNLAQEQRWAKIKSIMDDC-NH2; disulfide 5-34)	5.00 to 6.00	–	–
CC[C@H](C)[C@@H]1NC(=O)[C@H](CCCCN)NC(=O)[C@H](C)NC(=O)[C@H](Cc2c[nH]c3ccccc23)NC(=O)[C@H](C)NC(=O)[C@H](CCC(N)=O)NC(=O)[C@H](CCC(=O)O)NC(=O)[C@H](CCC(N)=O)NC(=O)[C@H](CC(N)=O)NC(=O)[C@H](CC(C)C)NC(=O)[C@H](CC(N)=O)NC(=O)[C@@H]2CCCN2C(=O)[C@H](CC(=O)O)NC(=O)[C@H](C(C)C)NC(=O)CNC(=O)[C@H](C)NC(=O)[C@H](CCC(=O)O)NC(=O)[C@H](CO)NC(=O)[C@H](CCSC)NC(=O)[C@H](CCCNC(=N)N)NC(=O)[C@H](CCCNC(=N)N)NC(=O)[C@H](CC(C)C)NC(=O)[C@@H](NC(=O)[C@H](CCC(N)=O)NC(=O)[C@H](CCSC)NC(=O)[C@H](CC(N)=O)NC(=O)[C@H](Cc2ccccc2)NC(C)=O)CSSC[C@@H](C(N)=O)NC(=O)[C@H](CC(=O)O)NC(=O)[C@H](CC(=O)O)NC(=O)[C@H](CCSC)NC(=O)[C@H]([C@@H](C)CC)NC(=O)[C@H](CO)NC(=O)[C@H](CCCCN)NC1=O [Peptide 19] (Ac-FNMQCLRRMSEAGVDPNLNQEQAWAKIKSIMDDC-NH2; disulfide 5-34)	5.00 to 6.00	–	–
CC[C@H](C)[C@@H]1NC(=O)[C@H](CCCCN)NC(=O)[C@H](C)NC(=O)[C@H](C)NC(=O)[C@H](CCCNC(=N)N)NC(=O)[C@H](CCC(N)=O)NC(=O)[C@H](CCC(=O)O)NC(=O)[C@H](CCC(N)=O)NC(=O)[C@H](CC(N)=O)NC(=O)[C@H](CC(C)C)NC(=O)[C@H](CC(N)=O)NC(=O)[C@@H]2CCCN2C(=O)[C@H](CC(=O)O)NC(=O)[C@H](C(C)C)NC(=O)CNC(=O)[C@H](C)NC(=O)[C@H](CCC(=O)O)NC(=O)[C@H](CO)NC(=O)[C@H](CCSC)NC(=O)[C@H](CCCNC(=N)N)NC(=O)[C@H](CCCNC(=N)N)NC(=O)[C@H](CC(C)C)NC(=O)[C@@H](NC(=O)[C@H](CCC(N)=O)NC(=O)[C@H](CCSC)NC(=O)[C@H](CC(N)=O)NC(=O)[C@H](Cc2ccccc2)NC(C)=O)CSSC[C@@H](C(N)=O)NC(=O)[C@H](CC(=O)O)NC(=O)[C@H](CC(=O)O)NC(=O)[C@H](CCSC)NC(=O)[C@H]([C@@H](C)CC)NC(=O)[C@H](CO)NC(=O)[C@H](CCCCN)NC1=O [Peptide 20] (Ac-FNMQCLRRMSEAGVDPNLNQEQRAAKIKSIMDDC-NH2; disulfide 5-34)	5.00 to 6.00	–	–

Now from value to molecule, other results behind:

pIC50 [1]	blocking of binding of IL-23 to IL-12Rβ1 [3]	Molecule	Mouse splenocyte assay [2] [µg/mL]
5.00 to 6.00	–	CC[C@H](C)[C@@H]1NC(=O)[C@H](CO)NC(=O)[C@H](CCCCN)NC(=O)[C@H](C)NC(=O)[C@H](CCCCN)NC(=O)[C@H](C)NC(=O)[C@H](Cc2c[nH]c3ccccc23)NC(=O)[C@H](CCCNC(=N)N)NC(=O)[C@H](CCC(N)=O)NC(=O)[C@H](CCC(=O)O)NC(=O)[C@H](CCC(N)=O)NC(=O)[C@H](CC(N)=O)NC(=O)[C@H](CC(C)C)NC(=O)[C@H](CC(N)=O)NC(=O)[C@@H]2CCCN2C(=O)[C@H](CC(=O)O)NC(=O)[C@H](C(C)C)NC(=O)CNC(=O)[C@H](C)NC(=O)[C@H](CCC(=O)O)NC(=O)[C@H](CO)NC(=O)[C@H](CCSC)NC(=O)[C@H](CCCNC(=N)N)NC(=O)[C@H](CCCNC(=N)N)NC(=O)[C@H](CC(C)C)NC(=O)[C@@H](NC(=O)[C@H](CCC(N)=O)NC(=O)[C@H](CCSC)NC(=O)[C@H](CC(N)=O)NC(=O)[C@H](Cc2ccccc2)NC(C)=O)CSSC[C@@H](C(N)=O)NC(=O)[C@H](CC(=O)O)NC(=O)[C@H](CC(=O)O)NC(=O)[C@H](CCSC)NC1=O [Peptide 21] (Ac-FNMQCLRRMSEAGVDPNLNQEQRWAKAKSIMDDC-NH2; disulfide 5-34)	–
5.00 to 6.00	–	CC[C@H](C)[C@@H]1NC(=O)[C@H](CCCCN)NC(=O)[C@H](C)NC(=O)[C@H](Cc2c[nH]c3ccccc23)NC(=O)[C@H](CCCNC(=N)N)NC(=O)[C@H](CCC(N)=O)NC(=O)[C@H](CCC(=O)O)NC(=O)[C@H](CCC(N)=O)NC(=O)[C@H](CC(N)=O)NC(=O)[C@H](CC(C)C)NC(=O)[C@H](CC(N)=O)NC(=O)[C@@H]2CCCN2C(=O)[C@H](CC(=O)O)NC(=O)[C@H](C(C)C)NC(=O)CNC(=O)[C@H](C)NC(=O)[C@H](CCC(=O)O)NC(=O)[C@H](CO)NC(=O)[C@H](CCSC)NC(=O)[C@H](CCCNC(=N)N)NC(=O)[C@H](CCCNC(=N)N)NC(=O)[C@H](CC(C)C)NC(=O)[C@@H](NC(=O)[C@H](CCC(N)=O)NC(=O)[C@H](CCSC)NC(=O)[C@H](CC(N)=O)NC(=O)[C@H](Cc2ccccc2)NC(C)=O)CSSC[C@@H](C(N)=O)NC(=O)[C@H](CC(=O)O)NC(=O)[C@H](CC(=O)O)NC(=O)[C@H](CCSC)NC(=O)[C@H]([C@@H](C)CC)NC(=O)[C@H](CO)NC(=O)[C@H](C)NC1=O [Peptide 22] (Ac-FNMQCLRRMSEAGVDPNLNQEQRWAKIASIMDDC-NH2; disulfide 5-34)	–
–	blocked	Ustekinumab: a humanized antibody that binds IL-23 (p40 subunit), approved for the treatment of psoriasis [reference compound]	0.06
